The values that follow come from paper PMC2904697, “A Screen for Kinetochore-Microtubule Interaction Inhibitors Identifies Novel Antitubulin Compounds” (PLoS ONE, 2010).

SMILES strings stand for the structures. Where “and” joins values, the source holds several entries; their conditions need not be identical. Equal entries are not always repeated.

Assay [1] concerns MTs assembled from αβ-tubulin. Description: Depolymerization of non-stabilized MTs in vitro (turbidity at 350 nm). Type of assay: biochemical. To be noted: for Fold difference between concentration inhibiting tubulin polymerization and that needed to disassemble MTs: Fig. 5B versus Fig. 5A. As to the method:
(§1) To quantify the antitubulin activity of compound B, we added 1–50 µmol/l compound B to 10 µmol/l αβ-tubulin. […] For this purpose, MTs were assembled from 10 µmol/l αβ-tubulin; 5 min into the reaction compound B was added in concentrations up to 200 µmol/l. MT depolymerization was tracked as a decrease in turbidity at 350 nm (Fig. 5B).
(§2) Polymerization of 10 µmol/l αβ-tubulin in BRB-80 buffer was monitored turbidimetrically at 350 nm for 15 min in a temperature-controlled spectrophotometer (37°C; SpectraMax Plus^384, Molecular Devices). To probe the effect of a compound on MT stability the molecule was added 5 min after initiation of tubulin assembly. The decrease in protein turbidity (350 nm) resulting from MT depolymerization was followed for 15 min at 37°C [13]. Quantitative comparisons of drug effects on tubulin assembly were also examined in 0.8 M glutamate with a 15 min drug-tubulin preincubation prior to the addition of GTP [14]. Tubulin assembly was monitored for 20 min at 30°C in Beckman DU7400/7500 spectrophotometers, and the compound concentration inhibiting tubulin assembly by 50% was determined.

Assay [2] deals with recombinant human Ndc80 kinetochore complex binding to taxol-stabilized microtubules. Description: Ndc80^488 complex-MT binding assay (fluorescence microscopy / TIRF). To be noted: for IC50: total internal reflection fluorescence microscopy, Ndc80^488 complex 0.1 µmol/l, taxol-stabilized MTs; for Effect on binding of the Ndc80^488 complex to taxol-stabilized MTs: compound 50 µmol/l, wide-field fluorescence microscopy. From the text:
To screen compound libraries for molecules inhibiting binding of the outer kinetochore Ndc80 complex (Ndc80, Nuf2, Spc24, Spc25) to MTs, we used a fluorescence microscopy-based in vitro approach (Fig. 1). First, the recombinant human Ndc80 construct, used to crystallize the complex, was produced in Escherichia coli using a bicistronic plasmid from which the Nuf2-Spc24 and Ndc80-Spc25 peptides were generated (Fig. 1A). Following their intracellular assembly, the complex was purified from E. coli cell extract based on the GST tag at the N-terminus of Nuf2. The complex was released in solution with PreScission Protease (its recognition sequence was introduced between the GST tag and the NUF2 coding sequence) and was separated from contaminants by gel filtration chromatography (Fig. 1A). The high degree of purity of the preparation was confirmed by SDS-PAGE analysis and coomassie staining, which identified only both peptides (Fig. 1B). Next, the Ndc80 complex was fluorescently labeled with the Alexa Fluor 488 C5-maleimide (next named the Ndc80^488 complex) and was separated from unreacted fluorophore by gel filtration chromatography. The final preparation was highly pure as evidenced by gel filtration analysis and detection at 519 nm (emission maximum of the Alexa Fluor 488 dye) and at 280 nm (intrinsic protein fluorescence) (Fig. 1B). Next, the Ndc80^488 complex (0.1 µmol/l) was incubated with 10,200 compounds (comprising the Chembridge DIVERset and a compound collection from the Univ. Rome) at a starting concentration of 50 µmol/l. Binding (or lack thereof) of the complex to rhodamine-labeled taxol-stabilized MTs (0.1 µmol/l) was scored by wide-field fluorescence microscopy (Fig. 1C; images in Fig. 2A). […] Total internal reflection fluorescence microscopy was used to establish the IC50 value of the compound, which was measured to be ∼20 µmol/l (Fig. 2C).
Recombinant human Ndc80 complex (Ndc80^Bonsai complex) was produced in Escherichia coli using a bicistronic expression plasmid (Fig. 1A, [12]). Following transcription from the TAC promoter/operator by induction with 0.4 mmol/l IPTG (20°C, 15 h), GST-Nuf2-Spc24 and Ndc80-Spc25 polypeptides were generated, which dimerized intracellulary into the GST-Ndc80 complex. The complex was isolated from E. coli cell extract following incubation with glutathione beads. The complex was released from the beads with PreScission Protease (GE Healthcare Life Sciences) and contaminants were removed by gel filtration chromatography (Superdex 200, GE Healthcare Life Sciences). On average 4 mg of Ndc80 complex were obtained from 1 liter of cell culture. Next, 1 mg Ndc80 complex was labeled with 0.1 mg Alexa Fluor 488 C5-maleimide fluorophore (Invitrogen) at a 1.5-2 stoichiometry. The fluorescent complex (Ndc80^488 complex) was separated from unreacted fluorophore by gel filtration chromatography (Fig. 1B) and was then used to screen for compounds inhibiting Ndc80^488 complex-MT binding (Fig. 1C). The Ndc80^488 complex is fully functional as it is recruited to and acts at kinetochores when injected into prometaphase HeLa cells.
MTs were polymerized (30 min, 37°C) from a 1∶10 mixture of rhodamine-labeled:unlabeled bovine brain αβ-tubulin (Cytoskeleton) in BRB-80 buffer (80 mmol/l PIPES pH 6.8, 1 mmol/l MgCl2, 1 mmol/l EGTA) and were then stabilized with 20 µmol/l taxol. The Ndc80^488 complex (0.1 µmol/l) was incubated with 100 µmol/l compound (30 min, 24°C) in 96-well polypropylene plates (Eppendorf). The 10,000 compound DIVERset library (Chembridge) and 200 compounds from the Department of Medicinal Chemistry and Technologies, University of Rome La Sapienza were used in the screen. Next, the MTs (100 nmol/l) were added to the compound-Ndc80^488 complex solution in a 1∶1 v/v ratio. After incubation (10 min, 24°C), the reaction mixtures were transferred to 96-well glass-bottom plates (Greiner Bio-one). […]

The next assay deals with αβ-tubulin. Description: Tubulin polymerization tracked turbidimetrically at 350 nm. The class given is biochemical. To be noted: for IC50: 10 µmol/l αβ-tubulin, GTP-containing buffer, turbidity 350 nm, read-out: IC50 for inhibition of tubulin polymerization. On the procedure: as §1, §2

As usually defined, the IC50 is the concentration needed to halve the response being measured. With `CCSCCOC(=O)c1[nH]c2c(c1C)C(=O)C[C@@H](c1ccco1)C2` [A8], in assay [1] (non-stabilized MTs in vitro), the “Ability to depolymerize MTs, fold higher than that of compound B” value is listed as 12 fold and the “Ability to depolymerize MTs, higher than that of nocodazole” value was found to be 10%. The half-maximal inhibitory concentration (IC50) in assay [2] was ~1 µM and 1 µM. Moreover, the “Fold more active than compound B in the Ndc80^488 complex-MT binding assay” value in assay [2] (versus compound B) is listed as approximately 20 fold. The “Fold lower IC50 for inhibiting tubulin assembly than that of compound B” value with αβ-tubulin (turbidimetric, versus compound B) was 4.2 fold.

`COC(=O)Nc1nc2ccc(C(=O)c3cccs3)cc2[nH]1` [nocodazole, reference compound]: the “Fold difference between concentration inhibiting tubulin polymerization and that needed to disassemble MTs” value in assay [1] was determined as […]. For the same compound, in assay [1] (MTs from 10 µmol/l αβ-tubulin, compound added 5 min into the reaction), the “Drug:tubulin molar ratio at which MT stability is affected / MT depolymerization induced” value was determined as […]. In assay [2], the “Effect on binding of the Ndc80^488 complex to taxol-stabilized MTs” value is listed as “did not prevent”. The IC50 in the assay on αβ-tubulin came out at […]. Also, the “Fold more effective than compound B in inhibiting tubulin polymerization” value in the assay on αβ-tubulin (versus compound B) is listed as […].

Consider `Cc1c(C(=O)OCC2CCCO2)[nH]c2c1C(=O)CC(c1ccco1)C2` (centres unmarked) [compound B, 6-furan-2-yl-3-methyl-4-oxo-4,5,6,7,-tetrahydro-1H-indole-2-carboxylic acid tetrahydro-furan-2-ylmethyl ester], for which, in assay [1], the “Fold difference between concentration inhibiting tubulin polymerization and that needed to disassemble MTs” value is “at least 40 fold”. Also, in assay [2], the “Effect on binding of the Ndc80^488 complex to taxol-stabilized MTs” value is “active”; the IC50 was ~20 µM and 20 µM. The IC50 with αβ-tubulin came out at 5.5 µM.
